# Results as given in US11918548B2, “Treatment of avascular or hypovascular micro-tumors” (Katholieke Universiteit Leuven, priority 2017, dated 2024).
# “And” between values parts separate entries of the source, which are not always exact repeats. Equal entries are not always repeated.
# How the values were obtained:
# [1] = tested on: primary hepatocellular carcinomas (HCCs); test: CA4P-induced tumoral necrosis in DENA-induced primary HCCs on cirrhotic liver (histopathology, microangiography); type: in vivo, rat
# Protocol: (§1) Tumor growth was monitored weekly by MRI from the 9th week after DENA administration until the largest tumor lesion attained more than 1 mm in diameter. All recruited tumor-carrying rats received single intravenous injection of CA4P at 10 mg/kg. T2WI, T1WI, DWI and CE-T1WI were performed 4 h before and 12 h after CA4P therapy. Rats were euthanized after the last time point of MRI for postmortem microangiography and histopathology.
# After the last MRI scanning, rats were anesthetized by an intraperitoneal injection of pentobarbital at 50 mg/kg. Then laparotomy was performed with blood collected via postcava and abdominal aorta cannulated, through which barium suspension was injected before the entire tumor-bearing liver was excised. With a digital mammography unit (Em-brace; Agfa-Gevaert, Mortsel, Belgium), postmortem hepatic arteriography was made at 26 kV, 32 mAs to document changes in tumor vascularity. The livers were then fixed and sliced into 3-mm sections in the axial plane corresponding to the MR images, and these sections were radiographed at 26 kV, 18 mAs for qualitative analysis.
# (§2) After microangiography, the tumor sections were paraffin imbedded, sliced into 5 μm thickness and stained with hematoxylin and eosin (H&E) for microscopic analysis using an Axiovert 200M microscope equipped with an AxioCam MR monochrome digital camera (Carl Zeiss Inc, Gottingen, Germany) and by AxioVision 4.8 software.
# Due to the high analogy to the histopathological progression observed in human liver cancer, rat primary HCCs were diagnosed according to the classical histomorphologic features: malignant hepatocytic tumors, often well vascularized, with wide trabeculae (>3 cell layers), noticeable acinar pattern, small cell changes, cytologic atypia, prominent nucleoli, mitotic activity, vascular invasion, absence of Kupffer cells and the loss of the reticulin network. The differentiation of rat HCCs was further classified into Grade I-IV using a modified 4-scale Edmondson and Steiner system [Schlageter et al. cited above].
# Digital images of tumor slices at a magnification of 12.5 were used to estimate the percentage of tumor necrosis by ImageJ software [Buijs et al. (2011) J Vasc Intery Radiol 22, 1175-1180]. Briefly, regions of interest were delineated around the entire tumor and the necrotic tumor, respectively, to get ‘necrotic ratio on each section’. For each tumor section, the axial slide representing this tumor block was selected as ‘section area’. Tumor necrosis on each H&E stained slice was estimated independently by 2 pathologists, and calculated with the equation: Intratumoral necrosis ratio (%)=Σ[Necrotic ratio on each section (%)×section area (mm^2)]×section thickness (mm)/[4/3π r^3] (mm^3).
# Statistical analyses were carried out by GraphPad Prism (version 7.02, GraphPad Software Inc, La Jolla, Calif., USA). The Pearson's correlation coefficient was calculated between percentile tumoral necrosis calculated by histopathology and tumor diameter measured from T2WI. Numerical data were presented as mean±standard errors of the mean (SEM). Comparison of percentile tumoral necrosis was performed by unpaired […] t-test; results of ADCs between tumor and liver background were compared by two-way ANOVA. A significant difference was concluded for P<0.05.
# [2] = tested on: micro-HCCs and cirrhotic liver; test: In vivo MRI (DWI-derived ADCperf/ADCdiff, T2WI, CE-T1WI) of micro-HCCs and surrounding cirrhotic liver after CA4P; set-up: species or system rat
# Protocol: Images were acquired on a clinical 3.0T MRI scanner (MAGNETOM Prisma; Siemens, Erlangen, Germany) and a human wrist coil (Hand/Wrist 16, A 1.5 T Tim coil, Siemens). Twenty axial images were acquired, with a slice thickness of 2.0 mm and a gap of 0.4 mm. T2-weighted (repetition time, 4000 ms; echo time, 70 ms; flip angle, 150°; field of view, 75×56 mm^2; matrix, 256×192) and T1-weighted (repetition time, 626 ms; echo time, 15 ms; flip angle, 160°; field of view, 75×56 mm^2; matrix, 256×192) turbo spin echo (TSE) images (T2WI, T1WI) were performed weekly to monitor tumor growth, while T2WI, T1WI, diffusion-weighted imaging (DWI) and consecutive contrast-enhanced (CE-) T1WIs were acquired to evaluate CA4P treatment. For DWI, a 2-dimensional SE echo-planar imaging (EPI) sequence (repetition time, 3500 ms; echo time, 62 ms; flip angle, 90°; field of view, 136×74 mm2; matrix, 96×52) with 8 b values (0, 50, 100, 150, 400, 600, 800 and 1000 seconds/mm^2) was acquired. For CE-MRI, a bolus of 0.2 mmol/kg Gd-DOTA was injected before a series of CE-T1WIs were acquired.?
# as §1
# On DWI, tumor area was manually contoured with an operator-defined region of interest (ROI) on all tumor-containing images. ADC map was calculated from DWI to quantify therapeutic responses by the following mono-exponential formula: Si=S0×exp (−bi×ADC), in which Si is the signal intensity (SI) measured on the ith b value image, bi is the corresponding b value, and S0 is a variable estimating the intrinsic SI (for b=0 seconds/mm^2).
# For the calculation of different ADC values, tumors were freehand delineated only on the central slices with the largest cross-sectional areas on the original DWIs at the b value of 1000 s/mm^2, in order to avoid partial volume effects. The delineation of each tumor lesion was copied to all images with different b values automatically. The average SI per tumor and per b value was then determined. The difference between ADClow (b=0, 50 and 100 s/mm^2) and ADChigh (b=600, 800 and 1000 s/mm^2) was defined as ADCperf to reflect the tissue microcapillary perfusion, while ADChigh was defined as ADCdiff [Chen et al. (2007) Methods. 43, 12-20].
# rhabdomyosarcomas (R1) = test: CA4P in rats with liver implantation of micro rhabdomyosarcomas (R1); type: in vivo, rat
# Excerpt: To verify whether the above unexpected findings can be supported in other types of solid tumors, we intentionally studied CA4P in a group of rats with liver implantation of rhabdomyosarcomas (R1) ranging from 1 to 5 mm in diameter as monitored by noninvasive longitudinal MRI and verified by postmortem techniques. R1 has been extensively studied on VDA research before but in much larger tumor size.
# cirrhotic liver = test: Tolerability of the procedures and liver damage in cirrhotic rats after CA4P; type: in vivo, rat
# Protocol: as §1, §2
# [3] = tested on: subcutaneous rhabdomyosarcomas; conditions: large tumors (≥14 cm^3) versus small tumors (<1 cm^3); cited from earlier work
# implanted tumor models = conditions: in vivo; cited from earlier work
# macro- and micro-cancers = conditions: input of the model; cited from earlier work
# [4] = tested on: rodent sarcoma, squamous cell carcinoma, fibrosarcoma, human renal cell carcinoma, Kaposi's sarcoma and breast carcinoma; conditions: intraperitoneal injection; cited from earlier work
# [5] = micro-HCC, CA4P 10 mg/kg iv, 12 h
# [6] = 12 h after CA4P 10 mg/kg iv versus baseline
compound,measurement,setting,value
"COc1ccc(/C=C\c2cc(OC)c(OC)c(OC)c2)cc1OP(=O)(O)O [CA4P, combretastatin A-4 phosphate]","tumoral necrosis, hypovascular Grade I-II well-differentiated micro-HCCs (Tumor 1-5)","[1]; histopathology, CA4P 10 mg/kg iv, 12 h",82.77-96.45%
same,"tumoral necrosis, Grade IV undifferentiated Tumor 7 (vascular lakes)",[1]; [5],minimal necrosis
same,"tumoral necrosis, hypervascular Grade III poorly differentiated Tumor 6",[1]; [5],23.15%
same,rate of tumoral necrosis in hepatic microcancers higher than in larger HCCs,"[1]; micro-HCCs ≤5 mm versus HCCs >5 mm, CA4P 10 mg/kg iv, 12 h",36.9% and 36.93%
same,"correlation of CA4P-induced tumoral necrosis with tumor diameter, micro-HCCs",[1]; tumors with diameters of ≤5 mm,not linearly correlated
same,ADCdiff in micro-HCC tumor,[2]; 12 h after CA4P 10 mg/kg iv,slightly rose
same,ADCdiff in surrounding cirrhotic liver,[2]; 12 h after CA4P 10 mg/kg iv,nearly unchanged
same,ADCperf (blood perfusion) in micro-HCC tumor,[2]; [6],drop of tumor perfusion
same,ADCperf (blood perfusion) in surrounding cirrhotic liver,[2]; [6],sharply decreased blood perfusion
same,duration of continuous liver ischemia,"[2]; cirrhotic liver, CA4P 10 mg/kg iv",at least 12 h
same,"tumoral necrosis on MRI, representative microcancer Tumor 1","[2]; twelve hours after CA4P treatment, T2WI, ADC, CE-T1WI",massive tumoral necrosis
same,histology of representative micro R1 tumor,"rhabdomyosarcomas (R1); 12 h after CA4P treatment, HE stained microscopy",massive and partial hemorrhagic tumor necrosis
same,necrosis in liver-implanted R1 lesions,"rhabdomyosarcomas (R1); R1 of 1 to 5 mm in diameter, 10 out of 11 lesions",over 90%
same,survival of rats,"cirrhotic liver; DENA gavage, anesthesia, MRI with contrast and intravenous CA4P treatment, 19 rats",All rats survived
same,necrosis in cirrhotic liver parenchyma,"cirrhotic liver; microscopy, 12 h after CA4P 10 mg/kg iv",necrotic foci scattered in the cirrhotic liver
same,CA4P efficacy in large tumors relative to small tumors,[3],16.6 fold
same,onset of tumor vascular disruption,implanted tumor models,less than 1 hour
same,time to extensive intratumoral necrosis,implanted tumor models,≤ 12 h
same,tumour necrosis (α) known to be induced,macro- and micro-cancers,50-99%
"COc1cc2c(c(OC)c1OC)-c1ccc(OP(=O)(O)O)cc1[C@@H](NC(C)=O)CC2 [ZD6126, N-acetylcochinol-O-phosphate]",necrosis in tumors larger than 1 g,[4],~90%
same,necrosis in tumors of less than 0.3 g,[4],~25%
